Measured values reported in patent publication US9363996B2, “Compositions and method for blocking ethylene response in field crops using 3-(cy-clopropyl-l-enyl)-propanoic salt” (Yissum Research Development Company of the Hebrew …, priority 2009, dated 2016).

Columns and labels:
wheat plants [1] = experiment: Ethephon-induced flag leaf epinasty of wheat plants after spike heading; format: in vivo, wheat (Triticum turgidum var. 'Gdera'); details: Ethephon 750 μL L^−1 spray alone
Description: (1) Abscission—This is a very sensitive model system for studying the effects of plant hormones. Ethylene induces the process of abscission, while auxin delays it. In the laboratory the experimental system is based on plant organ explants, which include the abscission zone. Abscission is induced by exposure to ethylene and at the termination of the experiment the number of abscised organs, usually either leaf blades or petioles are counted and the fraction of abscission is calculated. In the case of fruit, the decrease in fruit retention force is analyzed. In cotton, when WS-CPD (the ethylene-action antagonist herein disclosed) is tested, the whole plants or explants are pretreated by spraying with the antagonist, dissolved in a phosphate buffer solution (10-20 mM, pH 7.0) including 0.1% commercially available Kinetic™ as surfactant, and left to incubate for a predetermined time, usually between 6 and 24 h. […] At the end of the experiment the percentage of abscission is determined. […] At the end of the experiment a dimethylsulfoxide (DMSO) extract of the plant tissue is prepared, and the chlorophyll content of the extract is determined by spectrophotometric analysis. […] The extent of ethylene-induced epinasty of leaves is determined by measuring the change of the angle between the petiole and the stem shoot or blade. […]

wheat plants [2] = experiment: Ethephon-induced chlorophyll degradation in wheat leaves, glumes and chaffs; format: in vivo, wheat (Triticum turgidum var. 'Gdera'); details: for reduction of chlorophyll content: chaffes; for reduction of chlorophyll content / reduction in chlorophyll content: milky stage I; for decrease of chlorophyll content: Ethephon 250 and 750 μL L^−1 at milky stage I, after 5-6 days; for reduction in chlorophyll content: glumes
Description: (§1) (1) Abscission—This is a very sensitive model system for studying the effects of plant hormones. Ethylene induces the process of abscission, while auxin delays it. In the laboratory the experimental system is based on plant organ explants, which include the abscission zone. Abscission is induced by exposure to ethylene and at the termination of the experiment the number of abscised organs, usually either leaf blades or petioles are counted and the fraction of abscission is calculated. In the case of fruit, the decrease in fruit retention force is analyzed. In cotton, when WS-CPD (the ethylene-action antagonist herein disclosed) is tested, the whole plants or explants are pretreated by spraying with the antagonist, dissolved in a phosphate buffer solution (10-20 mM, pH 7.0) including 0.1% commercially available Kinetic™ as surfactant, and left to incubate for a predetermined time, usually between 6 and 24 h. The plants or explants are then further exposed for 24 h to ethylene gas (5 to 20 μL L^−1). The plants or explants are then ventilated and incubated for the required time under controlled conditions. At the end of the experiment the percentage of abscission is determined. (2) Chlorophyll degradation—This is a standard model for studying senescence. Plant material (whole plants, excised leaves or leaf discs) are pretreated. In cotton, tobacco and wheat, when WS-CPD is tested, the whole plants or explants are pretreated by spraying with the antagonist, dissolved in phosphate buffer solution (10-20 mM, pH 7.0) including 0.1% commercially available Kinetic™ surfactant, and left to incubate for a predetermined time, usually between 6 and 241. The plants or explants are then further exposed for 24 h to ethylene gas (1 to 100 μL L^−1), or sprayed with Ethephon™ (wheat; 250 to 750 μL L^−1). The plants or explants are then ventilated and incubated for the required time under controlled conditions. At the end of the experiment a dimethylsulfoxide (DMSO) extract of the plant tissue is prepared, and the chlorophyll content of the extract is determined by spectrophotometric analysis. The chlorophyll content is reported either on a fresh, dry weight basis, or on a surface area basis. (3) Epinasty—This is also one of the classical methods for studying ethylene effects in plants. The extent of ethylene-induced epinasty of leaves is determined by measuring the change of the angle between the petiole and the stem shoot or blade. After exposure of the intact plant to ethylene, the upright grown leaves bend downward. The increase in the angle values (degrees) between petiole and the stem is used as a measure of the effect of the ethylene. When WS-CPD is tested on cotton and wheat plants, the whole plants are pretreated by spraying with the antagonist dissolved in phosphate buffer solution (10-20 mM, pH 7.6) including 0.1% Kinetic™ as surfactant, and left to incubate for a predetermined time, usually between 6 and 24 h. The plants are then further exposed for 24 h to ethylene gas (cotton, 5 to 10 μL L^−1), or sprayed with Ethephon™ (wheat, 250 to 750 μL L^−1). The plants are then ventilated and incubated for the required time under controlled conditions. The epinastic effect is expressed by measuring the degree values of the downward curvature between the blade and petiole (cotton, FIGS. 1-3) or between the blade and the stem (wheat, FIGS. 31 and 32). (4) Wheat Grain yield—This is a common test of the effects of exposure of monocot plants either to environmental stresses such as drought that induce senescence by increasing endogenous ethylene production. Excessive internal or external ethylene will accelerate senescence which will lead to reduced grain yield. In this project the intact plants were grown in the greenhouse up to the spike hading at milky stage I and II. The plants were then sprayed with the dissolved WS-CPD in phosphate buffer solution (10 mM, pH 7.6) including 0.1% Kinetic™ as surfactant. Young Cotton Seedlings […]

wheat plants [3] = experiment: Wheat grain weight at the milky stages after Ethephon treatment; format: in vivo, wheat (Triticum turgidum var. 'Gdera'); details: Ethephon 750 μL L^−1, sandy soil
Description: as §1

tobacco seedlings = experiment: Ethylene-induced chlorophyll degradation in tobacco seedling leaves; format: in vivo, tobacco (Nicotiana tabacum var. 'Samsun'); details: ethylene alone
Description: as §1, with “ethylene.” for “ethylene. When WS-CPD is tested on cotton and wheat plants, the whole plants are pretreated by spraying with the antagonist dissolved in phosphate buffer solution (10-20 mM, pH 7.6) including 0.1% Kinetic™ as surfactant, and left to incubate for a predetermined time, usually between 6 and 24 h. The plants are then further exposed for 24 h to ethylene gas (cotton, 5 to 10 μL L^−1), or sprayed with Ethephon™ (wheat, 250 to 750 μL L^−1). The plants are then ventilated and incubated for the required time under controlled conditions. The epinastic effect is expressed by measuring the degree values of the downward curvature between the blade and petiole (cotton, FIGS. 1-3) or between the blade and the stem (wheat, FIGS. 31 and 32). (4) Wheat Grain yield—This is a common test of the effects of exposure of monocot plants either to environmental stresses such as drought that induce senescence by increasing endogenous ethylene production. Excessive internal or external ethylene will accelerate senescence which will lead to reduced grain yield. In this project the intact plants were grown in the greenhouse up to the spike hading at milky stage I and II. The plants were then sprayed with the dissolved WS-CPD in phosphate buffer solution (10 mM, pH 7.6) including 0.1% Kinetic™ as surfactant. Young Cotton Seedlings”

wheat seedlings = experiment: Third leaf growth of young wheat seedlings exposed to ethylene; format: in vivo, wheat (Triticum turgidum var. 'Gdera'); details: for inhibition of growth of the third leaf: additional experiment
[4] = test system: young cotton leaf explants; experiment: Ethylene-induced petiole abscission of young cotton leaf explants; format: in vivo, cotton (Gossyium hirsutum barbadense L.); details: ethylene alone
Description: (1) Abscission—This is a very sensitive model system for studying the effects of plant hormones. Ethylene induces the process of abscission, while auxin delays it. In the laboratory the experimental system is based on plant organ explants, which include the abscission zone. Abscission is induced by exposure to ethylene and at the termination of the experiment the number of abscised organs, usually either leaf blades or petioles are counted and the fraction of abscission is calculated. In the case of fruit, the decrease in fruit retention force is analyzed. In cotton, when WS-CPD (the ethylene-action antagonist herein disclosed) is tested, the whole plants or explants are pretreated by spraying with the antagonist, dissolved in a phosphate buffer solution (10-20 mM, pH 7.0) including 0.1% commercially available Kinetic™ as surfactant, and left to incubate for a predetermined time, usually between 6 and 24 h. The plants or explants are then further exposed for 24 h to ethylene gas (5 to 20 μL L^−1). The plants or explants are then ventilated and incubated for the required time under controlled conditions. At the end of the experiment the percentage of abscission is determined. (2) Chlorophyll degradation—This is a standard model for studying senescence. Plant material (whole plants, excised leaves or leaf discs) are pretreated. In cotton, tobacco and wheat, when WS-CPD is tested, the whole plants or explants are pretreated by spraying with the antagonist, dissolved in phosphate buffer solution (10-20 mM, pH 7.0) including 0.1% commercially available Kinetic™ surfactant, and left to incubate for a predetermined time, usually between 6 and 241. […] At the end of the experiment a dimethylsulfoxide (DMSO) extract of the plant tissue is prepared, and the chlorophyll content of the extract is determined by spectrophotometric analysis. […] The extent of ethylene-induced epinasty of leaves is determined by measuring the change of the angle between the petiole and the stem shoot or blade. […]

Compound | flag leaf epinasty (wheat plants [1]) | reduction of chlorophyll content (wheat plants [2]; Ethephon 250 μL L^−1) | reduction of chlorophyll content (wheat plants [2]; Ethephon 750 μL L^−1) | decrease of chlorophyll content (wheat plants [2]; flag leaf) | reduction of the content of chlorophyll (wheat plants [2]; flag leaf, Ethephon 750 μL L^−1, milky stage II) | chlorophyll lower compared with the untreated control spikes (wheat plants [2]; glumes and chaffs, Ethephon 750 μL L^−1, milky stage II) | reduction in chlorophyll content (wheat plants [2]; Ethephon 250 μL L^−1) | reduction in chlorophyll content (wheat plants [2]; Ethephon 750 μL L^−1) | decrease of chlorophyll content (wheat plants [2]; leaf II) | reduction of the content of chlorophyll (wheat plants [2]; leaf II, Ethephon 750 μL L^−1, milky stage II) | reduction of grain weight (wheat plants [3]; stage I) | reduction of grain weight (wheat plants [3]; stage II) | reduction of chlorophyll content (tobacco seedlings; mature (lower) leaves) | decrease in chlorophyll content as compared with air-treated leaves (tobacco seedlings; young (upper) leaves) | inhibition of growth of the third leaf (wheat seedlings; ethylene 1.6 μL L^−1) | inhibition of growth of the third leaf (wheat seedlings; ethylene 20 μL L^−1) | length of the third leaf longer than air-control leaf (wheat seedlings; ethylene 1 μL L^−1, continuous exposure) | inhibition of growth of the third leaf compared to air control (wheat seedlings; ethylene 10 μL L^−1) | inhibition of growth of the third leaf compared to air control (wheat seedlings; ethylene 100 μL L^−1) | rate of petiole abscission [4]
O=P(O)(O)CCCl [Ethephon, reference compound] | strong leaf epinasty | 33% | 28% | 16-21% | 33% | 12% | 10% | 40% | 21-22% | 47% | 4% | 18% |  |  |  |  |  |  |  | 
C=C [ethylene] |  |  |  |  |  |  |  |  |  |  |  |  | 72% | 17% | 20% | 35% | 50% | 50% | 30% | accelerated
